Measurements published in patent US8846937B2, “Mono quaternary ammonium salts and methods for modulating neuronal nicotinic acetylcholine receptors” (University of Kentucky Research Foundation, priority 2006, dated 2014).

Key:
[1] = target: T1, Rat Striatal Nicotinic Receptors ([^3H]NIC binding) (Rattus norvegicus, UniProt P09483+P12390); assay: Inhibition of [^3H]nicotine binding to brain membranes; conditions: 3 nM [^3H]NIC; for Ki: full concentration effect; for inhibition at 0.1 µM: % inhibition at 100 nM analog, nonspecific 10 μM nicotine
T1 construct: Whole brain, excluding cortex and cerebellum, was homogenized; from tissue; host or cells: rat brain membranes (whole brain excluding cortex and cerebellum)
T1 sequence (P09483 31-630): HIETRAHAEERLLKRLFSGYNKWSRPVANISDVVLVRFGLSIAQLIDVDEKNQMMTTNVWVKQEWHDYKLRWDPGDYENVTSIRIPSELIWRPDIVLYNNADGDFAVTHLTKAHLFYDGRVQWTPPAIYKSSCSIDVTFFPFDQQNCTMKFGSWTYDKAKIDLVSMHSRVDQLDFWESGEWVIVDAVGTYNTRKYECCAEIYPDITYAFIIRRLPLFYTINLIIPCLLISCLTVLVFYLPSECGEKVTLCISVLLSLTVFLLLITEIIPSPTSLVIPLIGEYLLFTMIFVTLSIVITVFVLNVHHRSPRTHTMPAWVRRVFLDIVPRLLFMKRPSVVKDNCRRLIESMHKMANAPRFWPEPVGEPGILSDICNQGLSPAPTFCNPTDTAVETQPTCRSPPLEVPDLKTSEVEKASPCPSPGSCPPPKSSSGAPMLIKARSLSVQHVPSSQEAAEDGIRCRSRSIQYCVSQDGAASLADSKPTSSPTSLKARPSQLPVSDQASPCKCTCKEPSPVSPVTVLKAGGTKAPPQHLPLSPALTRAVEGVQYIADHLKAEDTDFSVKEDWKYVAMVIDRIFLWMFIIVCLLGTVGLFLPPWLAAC
T1 sequence (P12390 25-500): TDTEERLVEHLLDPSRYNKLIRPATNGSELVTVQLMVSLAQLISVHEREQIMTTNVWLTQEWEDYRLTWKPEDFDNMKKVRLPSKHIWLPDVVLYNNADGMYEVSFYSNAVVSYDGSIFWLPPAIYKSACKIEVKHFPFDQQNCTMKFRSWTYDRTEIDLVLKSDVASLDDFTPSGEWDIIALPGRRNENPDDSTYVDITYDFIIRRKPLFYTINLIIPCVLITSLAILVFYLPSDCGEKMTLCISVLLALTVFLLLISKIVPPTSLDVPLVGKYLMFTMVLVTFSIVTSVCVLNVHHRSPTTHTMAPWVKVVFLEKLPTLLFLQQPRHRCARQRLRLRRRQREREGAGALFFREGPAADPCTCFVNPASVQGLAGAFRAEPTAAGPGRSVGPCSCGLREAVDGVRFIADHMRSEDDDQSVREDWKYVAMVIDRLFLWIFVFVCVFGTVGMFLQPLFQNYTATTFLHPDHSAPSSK
Protocol: (§1) Test compounds of Formula (I), representing the mono quaternary nicotine analogs of the present invention, were evaluated to determine the effect of a test compound on nicotine-binding and methyllycaconitine-binding mediated by nicotine acetylcholine receptors.
(§2) Homogenate was centrifuged (25,000 g, 15 min, 4° C.). Pellets were resuspended in 20 volumes of buffer and incubated at 37° C., for 10 min, cooled to 4° C. and centrifuged (25,000 g, 15 min, 4° C.). Pellets were resuspended and centrifuged using the same conditions. […] Upon use, final pellets were resuspended in ˜20 volumes of assay buffer. Samples (250 μl) contained 100-140 μg of membrane protein, 3 nM [^3H]nicotine or 3 nM [^3H]methyllycaconitine (MLA), and test compounds of Formula (I) (100 nM) in assay buffer containing 50 mM Tris. A control sample absent test compounds of Formula (I) was also prepared. In the [^3H]nicotine-binding assay and [^3H]MLA-binding assay, nonspecific-binding was determined in the presence of 10 μM nicotine and 10 μM MLA, respectively. Incubations proceeded for 60 min at a room temperature using 96-well plates, and were terminated by harvesting on Unifilter-96 GF/B filter plates presoaked in 0.5% polyethylenimine, using a Packard FilterMate harvester. After washing 5 times with 350 μl ice-cold assay buffer, the filter plates were dried (60 min, 4° C.), bottom-sealed, and filled with Packard's MicroScint 20 cocktail (40 μl/well). After 60 min, filter plates were top-sealed, and levels of radioactivity were determined using a Packard TopCount. Protein concentrations were determined using the Bradford dye-binding procedure using bovine serum albumin as a standard protein.
Specific binding in the [^3H]NIC binding assay is calculated as the difference between the total binding of 3 nM [^3H]NIC and nonspecific binding in the presence of 10 μM cold nicotine. […] Analog-induced inhibition of nicotine-evoked [^3H]DA release is calculated as a percent of that in the absence of the mono quaternary ammonium analog. ND indicates not determined.

[2] = target: T2, Rat Striatal Nicotinic Receptors ([^3H]MLA binding) (Rattus norvegicus, UniProt Q05941); assay: Inhibition of [^3H]methyllycaconitine (MLA) binding to brain membranes; conditions: for Ki: full concentration effect, 2.5 nM [^3H]MLA (footnote); for inhibition at 0.1 µM: % inhibition at 100 nM analog, 2.5 nM [^3H]MLA, nonspecific 1 μM MLA (footnote)
T2 construct: Whole brain, excluding cortex and cerebellum, was homogenized; from tissue; host or cells: rat brain membranes (whole brain excluding cortex and cerebellum)
T2 sequence (Q05941 23-502): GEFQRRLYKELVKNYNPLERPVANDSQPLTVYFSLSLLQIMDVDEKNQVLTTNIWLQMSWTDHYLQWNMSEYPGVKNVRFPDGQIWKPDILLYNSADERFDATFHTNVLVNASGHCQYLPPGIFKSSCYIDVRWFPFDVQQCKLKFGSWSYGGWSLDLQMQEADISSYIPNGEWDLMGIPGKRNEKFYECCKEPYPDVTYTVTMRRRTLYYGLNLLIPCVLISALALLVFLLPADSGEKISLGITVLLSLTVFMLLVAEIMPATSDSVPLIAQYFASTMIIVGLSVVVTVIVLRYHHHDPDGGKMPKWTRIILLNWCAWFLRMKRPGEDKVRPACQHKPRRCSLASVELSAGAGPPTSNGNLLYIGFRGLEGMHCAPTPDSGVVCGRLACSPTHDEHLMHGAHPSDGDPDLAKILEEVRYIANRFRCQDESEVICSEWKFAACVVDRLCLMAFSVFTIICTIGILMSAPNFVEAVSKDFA
Protocol: as §1
as §2, with “Samples (250 μl) contained 100-140 μg of membrane protein, 3 nM [^3H]nicotine or 3 nM [^3H]methyllycaconitine (MLA), and test compounds of Formula (I) (100 nM) in assay buffer containing 50 mM Tris.” left out, “In the [^3H]nicotine-binding assay and [^3H]MLA-binding assay, nonspecific-binding was determined in the presence of 10 μM nicotine and 10 μM MLA, respectively.” left out, “protein. […]” for “protein.”

[3] = system: nicotinic receptors, NIC-evoked [^3H]DA release from rat striatal slices; assay: Inhibition of nicotine-evoked [^3H]dopamine release from superfused rat striatal slices; assay type: cell-based; conditions: 1 h, 100 nM analog superfused 60 minutes prior to NIC (10 μM)
Protocol: Rat striatal slices (500 μm thickness, 6-8 mg wet weight) were incubated for 30 minutes in Krebs buffer (118 mM NaCl, 4.7 mM KCl, 1.2 mM MgCl2, 1.0 mM NaH2PO4, 1.3 mM CaCl2, 11.1 mM glucose, 25 mM NaHCO3, 0.11 mM L-ascorbic acid, and 0.004 mM disodium EDTA at pH 7.4, and saturated with 95% O2/5% CO2) in a metabolic shaker at 34° C. Slices were rinsed with 15 mL of fresh buffer, and were incubated for an additional 30 minutes in fresh buffer containing 0.1 μM [^3H]dopamine (DA; 6 slices/3 mL). Subsequently, slices were rinsed with 15 mL of fresh buffer and transferred to a glass superfusion chamber. Slices were superfused (1.0 mL/min) for 60 minutes with Krebs buffer containing nomifensine (10 μM) and pargyline (10 μM), and maintained at 34° C., pH 7.4, with continual aeration (95% O2/5% CO2). Two five minute samples (5 mL each) were collected to determine basal outflow of [^3H]DA. The test compounds of Formula (I) were added to the superfusion buffer after the collection of the second sample, and were maintained in the buffer until 12 consecutive five minute samples were collected. Subsequently, S-(−)-nicotine (10 μM) was added to the buffer, and an additional 12 consecutive five minute samples were collected. At the end of the experiment, each slice was solubilized, and the [^3H]content of the tissue determined.
Radioactivity in the superfusate and tissue samples was determined by liquid scintillation spectroscopy. Fractional release of tritium collected in each sample was divided by the total tritium present in the tissue at the time of sample collection, and the fractional release of tritium collected was expressed as a percentage of total tritium. Basal [^3H]outflow was calculated from the average of the tritium collected in the two five minute samples just before addition of a test compound of Formula (I). The sum of the increase in collected tritium resulting from either exposure to a test compound of Formula (I), or exposure to S(−) nicotine in the absence and presence of a test compound of Formula (I) equaled total [^3H]overflow. [^3H]Overflow was calculated by subtracting the [^3H]outflow during an equivalent period of pre-stimulation from the values in samples collected during and after drug exposure. Inasmuch as the radio-labeled compounds were not separated and identified, the tritium collected in superfusate is referred to as either [^3H]outflow or [^3H]overflow, rather than as [^3H]DA. [^3H]Overflow primarily represents [^3H]DA in the presence of nomifensine and pargyline in the superfusion buffer.
The quaternary analogs of Formula (I) were also evaluated for their ability to inhibit NIC-evoked [^3H]DA release. In these experiments, the striatal slices were superfused for 60 minutes with 100 nM concentration of the quaternary analogs prior to NIC (10 μM) exposure. Antagonist activity was evaluated by comparing the NIC-evoked [^3H]overflow in the absence and presence of the analogs. The relative order of potency of the quaternary analogs of Formula (I) for inhibition of NIC-evoked [^3H]DA release from rat striatal slices is illustrated in Table 1.
^aData are % inhibition at 100 nM concentration of the mono quaternary analogs for at least 1-3 independent experiments; with the exception of when a Ki value in μM is provided, in which case a full concentration effect was evaluated. Specific binding in the [^3H]NIC binding assay is calculated as the difference between the total binding of 3 nM [^3H]NIC and nonspecific binding in the presence of 10 μM cold nicotine. Specific binding for the [^3H]MLA binding assay is calculated as the difference between the total binding of 2.5 nM [^3H]MLA to the receptors alone and its nonspecific binding in the presence of 1 μM cold MLA. Analog-induced inhibition of nicotine-evoked [^3H]DA release is calculated as a percent of that in the absence of the mono quaternary ammonium analog. ND indicates not determined.

Cc1ccc[n+](CCCCCCCCc2ccccc2)c1
Ki [1]: > 100 µM
Ki [2]: > 100 µM
inhibition at 0.1 µM [3]: 0%

Cc1cc[n+](CCCCCCCCc2ccccc2)cc1
Ki [1]: > 100 µM
Ki [2]: 27 µM
inhibition at 0.1 µM [3]: 12%

CCCCc1ccc(C#CCC[n+]2ccc3c(c2)CCCC3)cc1
Ki [1]: > 100 µM
Ki [2]: 3.7 µM
inhibition at 0.1 µM [3]: 70%

c1cncc(CCCCCCCCCCCCC[n+]2ccc3c(c2)CCCC3)c1
Ki [1]: > 100 µM
Ki [2]: 7.2 µM
inhibition at 0.1 µM [3]: 0%

CCCCc1ccc[n+](CCCC#Cc2ccc(-c3ccccc3)cc2)c1
inhibition at 0.1 µM [1]: 0%
inhibition at 0.1 µM [2]: 9%
inhibition at 0.1 µM [3]: 50%

C(#Cc1ccc(-c2ccccc2)cc1)CCC[n+]1ccccc1
inhibition at 0.1 µM [1]: 2%
inhibition at 0.1 µM [2]: 6%
inhibition at 0.1 µM [3]: 34%
